Experimental data reported in the NIST ThermoML archive (doi:10.1021/je200195q).
Numbers after ± are expanded uncertainties.

Assay: activity coefficient (dimensionless); of the first substance listed, at infinite dilution; xn = mol fraction of the nth substance listed
Conditions: 101 kPa, Liquid, Chromatography, x1 = 0

CC(C)OC(C)C [diisopropyl ether] + CCCCCCCCCCn1cc[n+](CCCCCCCCCC)c1C.O=S(=O)([N-]S(=O)(=O)C(F)(F)F)C(F)(F)F
activity coefficient (323.1 K): 1.12 ± 0.071 | activity coefficient (333.15 K): 1.23 ± 0.079 | activity coefficient (343.15 K): 1.23 ± 0.079

C1CCCCC1 [cyclohexane] + CCCCCC[n+]1ccn(C)c1.FC(F)(F)C(F)(F)[P-](F)(F)(F)(C(F)(F)C(F)(F)F)C(F)(F)C(F)(F)F
activity coefficient (312.8 K): 4.78 ± 0.33 | activity coefficient (332.85 K): 4.17 ± 0.28 | activity coefficient (354.65 K): 3.62 ± 0.25

Cc1ccccc1 [toluene] + CCCCn1cc[n+](C)c1.O=S(=O)([N-]S(=O)(=O)C(F)(F)C(F)(F)F)C(F)(F)C(F)(F)F
activity coefficient (322.55 K): 1.4 ± 0.091 | activity coefficient (342.75 K): 1.42 ± 0.093 | activity coefficient (362.65 K): 1.46 ± 0.096

CCO [ethanol] + CCCCn1cc[n+](C)c1.O=S(=O)([N-]S(=O)(=O)C(F)(F)C(F)(F)F)C(F)(F)C(F)(F)F
activity coefficient (322.55 K): 1.65 ± 0.11 | activity coefficient (342.75 K): 1.37 ± 0.089 | activity coefficient (362.65 K): 1.18 ± 0.075

CC1CCCC1 [methylcyclopentane] + CCCCn1cc[n+](C)c1.O=S(=O)([N-]S(=O)(=O)C(F)(F)C(F)(F)F)C(F)(F)C(F)(F)F
activity coefficient (322.55 K): 6.85 ± 0.47 | activity coefficient (342.75 K): 6.05 ± 0.41 | activity coefficient (362.65 K): 5.79 ± 0.4

CCO [ethanol] + CCCCCCCCCCn1cc[n+](CCCCCCCCCC)c1C.O=S(=O)([N-]S(=O)(=O)C(F)(F)F)C(F)(F)F
activity coefficient (323.1 K): 1.27 ± 0.082 | activity coefficient (333.15 K): 1.15 ± 0.073 | activity coefficient (343.15 K): 1.04 ± 0.065

c1ccsc1 [thiophene] + CCCCCC[n+]1ccn(C)c1.FC(F)(F)C(F)(F)[P-](F)(F)(F)(C(F)(F)C(F)(F)F)C(F)(F)C(F)(F)F
activity coefficient (312.8 K): 0.577 ± 0.041 | activity coefficient (332.85 K): 0.602 ± 0.042 | activity coefficient (354.65 K): 0.604 ± 0.042

CC(C)CC(C)(C)C [2,2,4-trimethylpentane] + CCCCCC[n+]1ccn(C)c1.FC(F)(F)C(F)(F)[P-](F)(F)(F)(C(F)(F)C(F)(F)F)C(F)(F)C(F)(F)F
activity coefficient (312.8 K): 7.98 ± 0.54 | activity coefficient (332.85 K): 7.13 ± 0.49 | activity coefficient (354.65 K): 6.18 ± 0.42

CCN(CC)CC [triethylamine] + CCCCn1cc[n+](C)c1.O=S(=O)([N-]S(=O)(=O)C(F)(F)C(F)(F)F)C(F)(F)C(F)(F)F
activity coefficient (322.55 K): 2.73 ± 0.19 | activity coefficient (342.75 K): 3.61 ± 0.25 | activity coefficient (362.65 K): 3.27 ± 0.22

CC(C)OC(C)C [diisopropyl ether] + CCCCn1cc[n+](C)c1.O=S(=O)([N-]S(=O)(=O)C(F)(F)C(F)(F)F)C(F)(F)C(F)(F)F
activity coefficient (322.55 K): 3.46 ± 0.24 | activity coefficient (342.75 K): 3.46 ± 0.23 | activity coefficient (362.65 K): 3.43 ± 0.23

C=CCCCC [hex-1-ene] + CCCCCC[n+]1ccn(C)c1.FC(F)(F)C(F)(F)[P-](F)(F)(F)(C(F)(F)C(F)(F)F)C(F)(F)C(F)(F)F
activity coefficient (312.8 K): 3.67 ± 0.25 | activity coefficient (332.85 K): 3.42 ± 0.23 | activity coefficient (354.65 K): 3.14 ± 0.21

C=O [methanal] + CCn1cc[n+](C)c1.CS(=O)(=O)[O-]
activity coefficient (312.55 K): 0.615 ± 0.043 | activity coefficient (322.45 K): 0.656 ± 0.045 | activity coefficient (332.45 K): 0.691 ± 0.046

Cc1ccc(C)cc1 [1,4-dimethylbenzene] + CCCCCC[n+]1ccn(C)c1.FC(F)(F)C(F)(F)[P-](F)(F)(F)(C(F)(F)C(F)(F)F)C(F)(F)C(F)(F)F
activity coefficient (312.8 K): 0.992 ± 0.062 | activity coefficient (332.85 K): 1.03 ± 0.065 | activity coefficient (354.65 K): 1 ± 0.063

CCO [ethanol] + CCn1cc[n+](C)c1.CS(=O)(=O)[O-]
activity coefficient (312.55 K): 0.438 ± 0.035 | activity coefficient (322.45 K): 0.418 ± 0.035 | activity coefficient (332.45 K): 0.405 ± 0.034

Cc1ccc(C)cc1 [1,4-dimethylbenzene] + CCCCn1cc[n+](C)c1.O=S(=O)([N-]S(=O)(=O)C(F)(F)C(F)(F)F)C(F)(F)C(F)(F)F
activity coefficient (322.55 K): 2.05 ± 0.14 | activity coefficient (342.75 K): 2.03 ± 0.14 | activity coefficient (362.65 K): 2 ± 0.14

ClC(Cl)(Cl)Cl [tetrachloromethane] + CCCCCCCCCCn1cc[n+](CCCCCCCCCC)c1C.O=S(=O)([N-]S(=O)(=O)C(F)(F)F)C(F)(F)F
activity coefficient (323.1 K): 0.776 ± 0.051 | activity coefficient (333.15 K): 0.777 ± 0.051 | activity coefficient (343.15 K): 0.777 ± 0.051

Cc1cccc(C)c1 [1,3-dimethylbenzene] + CCCCCCCCCCn1cc[n+](CCCCCCCCCC)c1C.O=S(=O)([N-]S(=O)(=O)C(F)(F)F)C(F)(F)F
activity coefficient (323.1 K): 0.645 ± 0.044 | activity coefficient (333.15 K): 0.653 ± 0.045 | activity coefficient (343.15 K): 0.663 ± 0.045

CCCCCCCCC [nonane] + CCCCCCCCCCn1cc[n+](CCCCCCCCCC)c1C.O=S(=O)([N-]S(=O)(=O)C(F)(F)F)C(F)(F)F
activity coefficient (323.1 K): 3.31 ± 0.23 | activity coefficient (333.15 K): 3.17 ± 0.22 | activity coefficient (343.15 K): 3.45 ± 0.23

CC(C)CO [2-methyl-1-propanol] + CCCCCC[n+]1ccn(C)c1.FC(F)(F)C(F)(F)[P-](F)(F)(F)(C(F)(F)C(F)(F)F)C(F)(F)C(F)(F)F
activity coefficient (312.8 K): 2.77 ± 0.19 | activity coefficient (332.85 K): 2.13 ± 0.14 | activity coefficient (354.65 K): 1.62 ± 0.11

CCCCO [butan-1-ol] + CCCCCC[n+]1ccn(C)c1.FC(F)(F)C(F)(F)[P-](F)(F)(F)(C(F)(F)C(F)(F)F)C(F)(F)C(F)(F)F
activity coefficient (312.8 K): 4.9 ± 0.33 | activity coefficient (332.85 K): 2.32 ± 0.16 | activity coefficient (354.65 K): 1.76 ± 0.12

CCCC(C)=O [pentan-2-one] + CCCCn1cc[n+](C)c1.O=S(=O)([N-]S(=O)(=O)C(F)(F)C(F)(F)F)C(F)(F)C(F)(F)F
activity coefficient (322.55 K): 0.666 ± 0.045 | activity coefficient (342.75 K): 0.686 ± 0.046 | activity coefficient (362.65 K): 0.701 ± 0.047

CC1CCCCC1 [methylcyclohexane] + CCCCn1cc[n+](C)c1.O=S(=O)([N-]S(=O)(=O)C(F)(F)C(F)(F)F)C(F)(F)C(F)(F)F
activity coefficient (322.55 K): 9.09 ± 0.62 | activity coefficient (342.75 K): 7.96 ± 0.54 | activity coefficient (362.65 K): 7.07 ± 0.48

c1ccncc1 [pyridine] + CCCCn1cc[n+](C)c1.O=S(=O)([N-]S(=O)(=O)C(F)(F)C(F)(F)F)C(F)(F)C(F)(F)F
activity coefficient (322.55 K): 0.386 ± 0.033 | activity coefficient (342.75 K): 0.429 ± 0.035 | activity coefficient (362.65 K): 0.45 ± 0.036

CCC(=O)CC [pentan-3-one] + CCn1cc[n+](C)c1.CS(=O)(=O)[O-]
activity coefficient (312.55 K): 7.58 ± 0.52 | activity coefficient (322.45 K): 7.45 ± 0.51 | activity coefficient (332.45 K): 7.37 ± 0.5

CC#N [acetonitrile] + CCn1cc[n+](C)c1.CS(=O)(=O)[O-]
activity coefficient (312.55 K): 1.26 ± 0.081 | activity coefficient (322.45 K): 0.818 ± 0.053 | activity coefficient (332.45 K): 0.836 ± 0.054

ClCCl [dichloromethane] + CCCCCCCCCCn1cc[n+](CCCCCCCCCC)c1C.O=S(=O)([N-]S(=O)(=O)C(F)(F)F)C(F)(F)F
activity coefficient (323.1 K): 0.33 ± 0.032 | activity coefficient (333.15 K): 0.341 ± 0.032 | activity coefficient (343.15 K): 0.351 ± 0.032

Cc1cccc(C)c1 [1,3-dimethylbenzene] + CCCCn1cc[n+](C)c1.O=S(=O)([N-]S(=O)(=O)C(F)(F)C(F)(F)F)C(F)(F)C(F)(F)F
activity coefficient (322.55 K): 2.02 ± 0.14 | activity coefficient (342.75 K): 2.03 ± 0.14 | activity coefficient (362.65 K): 2.09 ± 0.14

C#CCCCC [1-hexyne] + CCCCCC[n+]1ccn(C)c1.FC(F)(F)C(F)(F)[P-](F)(F)(F)(C(F)(F)C(F)(F)F)C(F)(F)C(F)(F)F
activity coefficient (312.8 K): 1.94 ± 0.13 | activity coefficient (332.85 K): 1.89 ± 0.13 | activity coefficient (354.65 K): 1.75 ± 0.12

CCOCC [diethyl ether] + CCCCn1cc[n+](C)c1.O=S(=O)([N-]S(=O)(=O)C(F)(F)C(F)(F)F)C(F)(F)C(F)(F)F
activity coefficient (322.55 K): 1.72 ± 0.12 | activity coefficient (342.75 K): 1.7 ± 0.11 | activity coefficient (362.65 K): 1.65 ± 0.11

ClC(Cl)(Cl)Cl [tetrachloromethane] + CCCCCC[n+]1ccn(C)c1.FC(F)(F)C(F)(F)[P-](F)(F)(F)(C(F)(F)C(F)(F)F)C(F)(F)C(F)(F)F
activity coefficient (312.8 K): 2.19 ± 0.15 | activity coefficient (332.85 K): 2.08 ± 0.14 | activity coefficient (354.65 K): 1.94 ± 0.13

CC(C)CC(C)(C)C [2,2,4-trimethylpentane] + CCCCn1cc[n+](C)c1.O=S(=O)([N-]S(=O)(=O)C(F)(F)C(F)(F)F)C(F)(F)C(F)(F)F
activity coefficient (322.55 K): 13.3 ± 0.91 | activity coefficient (342.75 K): 11.7 ± 0.8 | activity coefficient (362.65 K): 10.5 ± 0.72
